Measurements from patent US9995734B2, “Human T cell line assay for evaluating the immunologic identity of glatiramer acetate preparations” (Mylan Inc., priority 2013, dated 2018).

Tests used:
[1] = system: Donor 1 GMA Expanded T-Cell Lines (222-AG11, 222-AG12, 222-BA11, 222-BC11); assay: ATP proliferation assay (CellTiter Glo), Donor 1 GMA expanded T-cell lines, incl. reactivity to non-canonical GA peptides; format: cell-based, human; conditions: 222-BA11, 222-BC11, 222-AG11, 222-AG12; Day 32; 0, 1, 10, 100 μg/mL
Outline: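 GMA-expanded T-cell lines from Donor 1 restimulated with GMA (0–100 μg/mL), or with non-canonical GA peptides, COP and GMA (0–30 μg/mL; T cells 2×10^5 cells/mL). Mitomycin C-treated autologous PBMC or B-LCL served as APC. Proliferation read by CellTiter-Glo ATP luminescence after 3 days at 37° C.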

Donor 3 GMA T-Cell Lines = assay: ATP proliferation assay (CellTiter Glo), Donor 3 GMA T-cell lines, incl. reactivity to non-canonical GA peptides; format: cell-based, human; conditions: for ATP proliferation assay: Day 14

glatiramer acetate [GMA]
proliferative response relative to control, dose comparison [1]: best proliferative response relative to control was observed in the cells stimulated with 10 μg/mL | ratio of proliferation in response to GMA:control (APC only) (Donor 3 GMA T-Cell Lines): greater than 3.0 | ATP proliferation assay (Donor 3 GMA T-Cell Lines; 165-B2G, 10 μg/mL, control 9692): 28770 RLU | response in proliferation assay (Donor 3 GMA T-Cell Lines; 165-B5G, 165-D8G, 165-E7G, 165-F5G, Day 56, 0, 1, 5, 10, 100 μg/mL, GMA and COP responses comparable): responded well | ATP proliferation assay (Donor 3 GMA T-Cell Lines; 165-B5G, 10 μg/mL, control 15423): 63023 RLU | ATP proliferation assay (Donor 3 GMA T-Cell Lines; 165-B11G, 10 μg/mL, control 18412): 56588 RLU | ATP proliferation assay (Donor 3 GMA T-Cell Lines; 165-C4G, 10 μg/mL, control 14869): 62306 RLU | ATP proliferation assay (Donor 3 GMA T-Cell Lines; 165-C5G, 10 μg/mL, control 14240): 76296 RLU | ATP proliferation assay (Donor 3 GMA T-Cell Lines; 165-C8G, 10 μg/mL, control 18205): 79281 RLU | ATP proliferation assay (Donor 3 GMA T-Cell Lines; 165-D8G, 10 μg/mL, control 30331): 136938 RLU | ATP proliferation assay (Donor 3 GMA T-Cell Lines; 165-E7G, 10 μg/mL, control 18215): 66364 RLU | ATP proliferation assay (Donor 3 GMA T-Cell Lines; 165-E9G, 10 μg/mL, control 17059): 52948 RLU | ATP proliferation assay (Donor 3 GMA T-Cell Lines; 165-F2G, 10 μg/mL, control 14734): 44951 RLU | ATP proliferation assay (Donor 3 GMA T-Cell Lines; 165-F5G, 10 μg/mL, control 16943): 100677 RLU | ATP proliferation assay (Donor 3 GMA T-Cell Lines; 165-F8G, 10 μg/mL, control 17986): 72716 RLU | ATP proliferation assay (Donor 3 GMA T-Cell Lines; 165-F10G, 10 μg/mL, control 13314): 42447 RLU | ATP proliferation assay (Donor 3 GMA T-Cell Lines; 165-H11G, 10 μg/mL, control 17149): 52850 RLU | Proliferation (luminescent ATP assay), Mean (Donor 3 GMA T-Cell Lines; T-cell line 165-05G, 1 μg/mL antigen, Day 50 of culturing, No Antigen Value 2149): 3999 RLU | Proliferation (luminescent ATP assay), Mean (Donor 3 GMA T-Cell Lines; T-cell line 165-05G, 3 μg/mL antigen, Day 50 of culturing, No Antigen Value 2149): 35643 RLU | Proliferation (luminescent ATP assay), Mean (Donor 3 GMA T-Cell Lines; T-cell line 165-05G, 10 μg/mL antigen, Day 50 of culturing, No Antigen Value 2149): 53130 RLU | Proliferation (luminescent ATP assay), Mean (Donor 3 GMA T-Cell Lines; T-cell line 165-05G, 30 μg/mL antigen, Day 50 of culturing, No Antigen Value 2149): 55596 RLU | Mean, ATP proliferation assay (Donor 3 GMA T-Cell Lines; T-cell line 165-B2G, 1 μg/mL, Day 40): 4034 | Mean, ATP proliferation assay (Donor 3 GMA T-Cell Lines; T-cell line 165-B2G, 3 μg/mL, Day 40): 20994 | Mean, ATP proliferation assay (Donor 3 GMA T-Cell Lines; T-cell line 165-B2G, 10 μg/mL, Day 40): 38244 | Mean, ATP proliferation assay (Donor 3 GMA T-Cell Lines; T-cell line 165-B5G, 1 μg/mL, Day 40): 3866 | Proliferation (luminescent ATP assay), Mean (Donor 3 GMA T-Cell Lines; T-cell line 165-B5G, 1.25 μg/mL antigen, Day 55 of culturing, No Antigen Value 846): 1406 RLU | Proliferation (luminescent ATP assay), Mean (Donor 3 GMA T-Cell Lines; T-cell line 165-B5G, 2.5 μg/mL antigen, Day 55 of culturing, No Antigen Value 846): 2537 RLU | Mean, ATP proliferation assay (Donor 3 GMA T-Cell Lines; T-cell line 165-B5G, 3 μg/mL, Day 40): 6591 | Proliferation (luminescent ATP assay), Mean (Donor 3 GMA T-Cell Lines; T-cell line 165-B5G, 5 μg/mL antigen, Day 55 of culturing, No Antigen Value 846): 5205 RLU | Proliferation (luminescent ATP assay), Mean (Donor 3 GMA T-Cell Lines; T-cell line 165-B5G, 10 μg/mL antigen, Day 55 of culturing, No Antigen Value 846): 11364 RLU | Mean, ATP proliferation assay (Donor 3 GMA T-Cell Lines; T-cell line 165-B5G, 10 μg/mL, Day 40): 12367 | Mean, ATP proliferation assay (Donor 3 GMA T-Cell Lines; T-cell line 165-C4G, 1 μg/mL, Day 40): 3434 | Mean, ATP proliferation assay (Donor 3 GMA T-Cell Lines; T-cell line 165-C4G, 3 μg/mL, Day 40): 6312 | Mean, ATP proliferation assay (Donor 3 GMA T-Cell Lines; T-cell line 165-C4G, 10 μg/mL, Day 40): 19169 | Mean, ATP proliferation assay (Donor 3 GMA T-Cell Lines; T-cell line 165-C5G, 1 μg/mL, Day 40): 12236 | Proliferation (luminescent ATP assay), Mean (Donor 3 GMA T-Cell Lines; T-cell line 165-C5G, 1.25 μg/mL antigen, autologous B-LCL): 2511 RLU | Proliferation (luminescent ATP assay), Mean (Donor 3 GMA T-Cell Lines; T-cell line 165-C5G, 2.5 μg/mL antigen, autologous B-LCL): 26253 RLU | Mean, ATP proliferation assay (Donor 3 GMA T-Cell Lines; T-cell line 165-C5G, 3 μg/mL, Day 40): 36288 | Proliferation (luminescent ATP assay), Mean (Donor 3 GMA T-Cell Lines; T-cell line 165-C5G, 5 μg/mL antigen, autologous B-LCL): 67559 RLU | Proliferation (luminescent ATP assay), Mean (Donor 3 GMA T-Cell Lines; T-cell line 165-C5G, 10 μg/mL antigen, autologous B-LCL): 74630 RLU | Mean, ATP proliferation assay (Donor 3 GMA T-Cell Lines; T-cell line 165-C5G, 10 μg/mL, Day 40): 45444 | Mean, ATP proliferation assay (Donor 3 GMA T-Cell Lines; T-cell line 165-C8G, 1 μg/mL, tested with the Donor 3 COP lines of Table 25): 5605 RLU | Mean, ATP proliferation assay (Donor 3 GMA T-Cell Lines; T-cell line 165-C8G, 3 μg/mL, tested with the Donor 3 COP lines of Table 25): 5002 RLU | Mean, ATP proliferation assay (Donor 3 GMA T-Cell Lines; T-cell line 165-C8G, 10 μg/mL, tested with the Donor 3 COP lines of Table 25): 30200 RLU | Mean, ATP proliferation assay (Donor 3 GMA T-Cell Lines; T-cell line 165-D8G, 1 μg/mL, Day 40): 9427
